Data taken from paper PMC5989765, “The safety, tolerability, and pharmacokinetic profile of GSK2838232, a novel 2nd generation HIV maturation inhibitor, as assessed in healthy subjects” (Pharmacology Research & Perspectives, 2018).
Entries after “also recorded” stand apart in the source; their conditions may differ. Where two headings read alike, the source gives them in different places.

Columns and labels:
[1] = Study 200207: repeat dose 20-50 mg QD for 8 days, SDD, healthy subjects; format: in vivo, human
Experimental: This study was conducted in parallel with Study 200912 and was planned as a two‐part, double‐blind, placebo‐controlled, repeat dose escalation study of GSK2838232 with and without RTV for 8‐11 days. Subjects were randomized 3:1 to receive GSK2838232 or placebo. Part A was designed to evaluate GSK2838232 given alone for 8 days (20 mg and 50 mg GSK2838232 once‐daily (QD) for 8 days, respectively) and Part B was designed to evaluate GSK2838232 when co‐administered with 100 mg RTV QD for 11 days. Because of the occurrence of an SAE that was eventually determined to be unlikely to be related to GSK2838232 (see Safety discussion), the study was terminated early after one cohort in Part B (10 mg GSK2838232 + 100 mg RTV QD) had completed only 5 days of the planned 11‐day regimen.
(§1) Blood samples were taken via an indwelling cannula or by direct venipuncture, collected into a di‐potassium ethylenediaminetetraacetic acid (K2 EDTA) tube, and placed on wet ice. Samples were centrifuged at approximately 1500g for 10 minutes at approximately 4°C. Exactly 500 μL of the resulting plasma was transferred into labeled 1.4 mL Matrix TrakMate Tubes containing exactly 500 μL of 50 mmol/L citrate buffer, pH 4.0, and mixed well. When 500 μL of plasma was not able to be transferred, the ratio of plasma to citrate buffer was kept at 1:1. Buffered plasma samples were kept on ice and frozen at −70°C within 1 hour of collection. Plasma samples were analyzed for GSK2838232 using a validated analytical method based on protein precipitation, followed by high performance liquid chromatography with tandem mass spectrometry (HPLC/MS/MS) analysis.
(§2) Extracts were analyzed using HPLC (Shimadzu, Nexera, 30 series) and tandem mass spectrometry detection (HPLC‐MS/MS). The mass spectrometer used was an API‐5500 using IonSpray interface (500 V) in positive mode monitoring. The mass transitions were 809.5 to 255.1 and 816.5 to 262.1 for GSK2838232 and [2H7] GSK2838232 (the isotopically labeled internal standard), respectively. The chromatographic conditions utilized a Waters Acquity UPLC BEH C18 column (50 × 2.1 mm, 1.7 μm) with mobile phases consisting of 1 mmol/L ammonium formate:formic acid (100:0.005) (mobile phase A) and acetonitrile:formic acid (100:0.1) (mobile phase B) at a flow rate of 0.6 mL/min, with pump B at 63% held for 2 minutes. The assay was validated to have precision (%RSD) of 0.7%‐6.5% (within‐run) and 1.0%‐5.9% RSD (between‐run) and with accuracy (%bias) of 0.0%‐1.6%. […] The lower limit of quantification (LLQ) was 0.5 ng/mL, using a 50 μL aliquot of K2EDTA acidified plasma. The higher limit of quantification (HLQ) was 500 ng/mL.
(§3) The PK parameters were calculated by standard noncompartmental analysis based on actual sampling times using WinNonlin Version 6.3 or higher. Estimation of AUC used the linear up/log down trapezoidal rule.

[2] = Study 204953 Part 2: repeat dosing for 11 days with RTV QD or 200 mg BID unboosted; format: in vivo, human; details: for CL/F / Cmax / AUC / half-life: geometric mean (95% CI); for Cmax / Tmax / AUC / concentration at 24 h / half-life / concentration at 12 h: human, plasma, oral; for AUC: read-out: AUC(0‐τ); for half-life: read-out: t½ (converted); for dose proportionality (C max and AUC): repeat QD dosing 20‐200 mg with RTV for 11 days, PiB or capsules
Experimental: This study was planned as an extension of the previously conducted single‐ and multiple‐dose escalation studies described above. It was a double‐blind, placebo‐controlled, single and repeat dose escalation study of micronized API GSK2838232 with RTV conducted in three parts (Part 1A, Part 1B, and Part 2).
In Part 2, GSK2838232 was given to separate cohorts as once‐daily 20, 50, 100, and 200 mg doses with RTV for 11 days, with GSK2838232 and RTV dosing starting at the same time (i.e., no RTV predosing). GSK2838232 was administered as PiB for the 20 and 50 mg cohorts and as the capsule formulation for the 100 and 200 mg cohorts. Another separate cohort of subjects received GSK2838232 alone (i.e., unboosted) at a dose of 200 mg twice‐daily (BID; given every 12 hours) for 11 days using the capsule formulation to assess trough concentrations without RTV co‐administration.
as §1, §2, §3

[3] = repeated daily dosing with 50 mg, unboosted
[4] = Study Day 11, 20 mg QD + RTV (PiB), Study 204953
[5] = Study Day 11, 50 mg QD + RTV (PiB), Study 204953
[6] = Study Day 11, 100 mg QD + RTV (capsules), Study 204953
[7] = Study Day 11, 200 mg QD + RTV (capsules), Study 204953
[8] = 200 mg, Study Day 11, 200 mg bid without RTV (capsules), Study 204953
[9] = relative to first dose following predosing ritonavir to steady‐state

## CC(C)C1=C2[C@H]3CC[C@@H]4[C@@]5(C)CC[C@H](OC(=O)CC(C)(C)C(=O)O)C(C)(C)[C@@H]5CC[C@@]4(C)[C@]3(C)CC[C@@]2([C@@H](O)CN(CCN(C)C)Cc2ccc(Cl)cc2)CC1=O [GSK2838232]
[1]; Study 200207, after expert evaluation
  relatedness of the two cardiovascular events: the likelihood of a relationship was very low
[1]; Study 200207, one subject, 39 hours after last of eight daily 50 mg doses
  cardiovascular finding: arrhythmia: a nonsustained ventricular tachycardia (NSVT) that was associated with dyspnea in another
[1]; Study 200207, one subject, second day of dosing with 20 mg
  cardiovascular finding: troponin: a mild troponin elevation in one subject
[1]; human, plasma, oral, one subject, 39 hours after the last of eight daily 50 mg doses, read-out: plasma concentration at the time of the NSVT event
  concentration at 39 hours: < 1 ng/mL
[1]; human, plasma, oral, without boosting, repeat dosing, read-out: t½ (converted)
  half-life: ~15 h
[1]; [3]
  accumulation ratio based on AUC: 1.2
  accumulation ratio based on C max: 1.1
  accumulation ratio based on Cτ: 1.4
[1]; unboosted
  time to steady state: 3 days
[1]; unboosted, 20 mg and 50 mg QD for 8 days
  dose proportionality of AUC and C max: slightly less than dose‐proportional
[1]; unboosted, 20 mg to 50 mg QD for 8 days
  increase in AUC and C max after a 2.5‐fold dose: approximately 2 fold
[2]; 200 mg BID unboosted, PA‐IC90 5 ng/mL
  steady‐state C24 as multiple of PA‐IC90: ~ 8 fold
[2]; Study 204953
  steady‐state C24 of 200 mg BID without RTV compared with 50 mg QD with RTV: similar
[2]; [4]
  CL/F: 44.5 (29.5, 67.3) L/h
  Cmax: 25.3 ng/mL
  half-life: 19.8 h
[2]; [5]
  CL/F: 46.0 (35.7, 59.2) L/h
  Cmax: 56.6 ng/mL
  half-life: 20.5 h
[2]; [6]
  CL/F: 41.5 (30.7, 56.1) L/h
  Cmax: 130 ng/mL
  half-life: 17.7 h
[2]; [7]
  CL/F: 49.8 (30.3, 81.9) L/h
  Cmax: 225 ng/mL
  half-life: 18 h
[2]; Study Day 11, 200 mg bid without RTV (capsules), Study 204953
  CL/F: 269 (182, 399) L/h
[2]; 20 mg, Study day 1, 20 mg QD + RTV (PiB), Study 204953
  Cmax: 11.1 ng/mL
[2]; 20 mg, Study day 1, 20 mg QD + RTV (PiB), Study 204953, median (range)
  Tmax: 3.74 h
[2]; 20 mg, Study day 1, 20 mg QD + RTV (PiB), τ = 24 hours, Study 204953
  AUC: 175 ng·h/mL
[2]; 20 mg, Study day 1, 20 mg QD + RTV (PiB), τ = 24 hours, Study 204953, median (range), read-out: Cτ
  concentration at 24 h: 6.09 ng/mL
[2]; 50 mg, Study day 1, 50 mg QD + RTV (PiB), Study 204953
  Cmax: 17.1 ng/mL
[2]; 50 mg, Study day 1, 50 mg QD + RTV (PiB), Study 204953, median (range)
  Tmax: 2.5 h
[2]; 50 mg, Study day 1, 50 mg QD + RTV (PiB), τ = 24 hours, Study 204953
  AUC: 265 ng·h/mL
[2]; 50 mg, Study day 1, 50 mg QD + RTV (PiB), τ = 24 hours, Study 204953, median (range), read-out: Cτ
  concentration at 24 h: 11.1 ng/mL
[2]; 100 mg, Study day 1, 100 mg QD + RTV (capsules), Study 204953
  Cmax: 46.2 ng/mL
[2]; 100 mg, Study day 1, 100 mg QD + RTV (capsules), Study 204953, median (range)
  Tmax: 2.25 h
[2]; 100 mg, Study day 1, 100 mg QD + RTV (capsules), τ = 24 hours, Study 204953
  AUC: 635 ng·h/mL
[2]; 100 mg, Study day 1, 100 mg QD + RTV (capsules), τ = 24 hours, Study 204953, median (range), read-out: Cτ
  concentration at 24 h: 22.7 ng/mL
[2]; 200 mg, 200 mg BID unboosted, read-out: steady‐state C24 mean concentration
  concentration at 24 h: 39 ng/mL
[2]; [8]
  Cmax: 96.1 ng/mL
  half-life: 19.4 h
[2]; 200 mg, Study Day 11, 200 mg bid without RTV (capsules), Study 204953, median (range)
  Tmax: 3.76 h
[2]; 200 mg, Study Day 11, 200 mg bid without RTV (capsules), τ = 12 hours, Study 204953
  AUC: 742 ng·h/mL
[2]; 200 mg, Study Day 11, 200 mg bid without RTV (capsules), τ = 12 hours, Study 204953, median (range), read-out: Cτ
  concentration at 12 h: 38.4 ng/mL
[2]; 200 mg, Study day 1, 200 mg QD + RTV (capsules), Study 204953
  Cmax: 75 ng/mL
[2]; 200 mg, Study day 1, 200 mg QD + RTV (capsules), Study 204953, median (range)
  Tmax: 2.25 h
[2]; 200 mg, Study day 1, 200 mg QD + RTV (capsules), τ = 24 hours, Study 204953
  AUC: 1060 ng·h/mL
[2]; 200 mg, Study day 1, 200 mg QD + RTV (capsules), τ = 24 hours, Study 204953, median (range), read-out: Cτ
  concentration at 24 h: 40.1 ng/mL
[2]; 200 mg, Study day 1, 200 mg bid without RTV (capsules), Study 204953
  Cmax: 48.5 ng/mL
[2]; 200 mg, Study day 1, 200 mg bid without RTV (capsules), Study 204953, median (range)
  Tmax: 3.74 h
[2]; 200 mg, Study day 1, 200 mg bid without RTV (capsules), τ = 12 hours, Study 204953
  AUC: 267 ng·h/mL
[2]; 200 mg, Study day 1, 200 mg bid without RTV (capsules), τ = 12 hours, Study 204953, median (range), read-out: Cτ
  concentration at 12 h: 20 ng/mL
[2]; Study Day 11, 20 mg QD + RTV (PiB), Study 204953, median (range)
  Tmax: 5.98 h
[2]; Study Day 11, 20 mg QD + RTV (PiB), τ = 24 hours, Study 204953
  AUC: 449 ng·h/mL
[2]; Study Day 11, 20 mg QD + RTV (PiB), τ = 24 hours, Study 204953, median (range), read-out: Cτ
  concentration at 24 h: 17 ng/mL
[2]; Study Day 11, 50 mg QD + RTV (PiB), Study 204953, median (range)
  Tmax: 3.75 h
[2]; Study Day 11, 50 mg QD + RTV (PiB), τ = 24 hours, Study 204953
  AUC: 1090 ng·h/mL
[2]; Study Day 11, 50 mg QD + RTV (PiB), τ = 24 hours, Study 204953, median (range), read-out: Cτ
  concentration at 24 h: 40.8 ng/mL
[2]; Study Day 11, 100 mg QD + RTV (capsules), Study 204953, median (range)
  Tmax: 3.25 h
[2]; Study Day 11, 100 mg QD + RTV (capsules), τ = 24 hours, Study 204953
  AUC: 2410 ng·h/mL
[2]; Study Day 11, 100 mg QD + RTV (capsules), τ = 24 hours, Study 204953, median (range), read-out: Cτ
  concentration at 24 h: 89.3 ng/mL
[2]; Study Day 11, 200 mg QD + RTV (capsules), Study 204953, median (range)
  Tmax: 3.25 h
[2]; Study Day 11, 200 mg QD + RTV (capsules), τ = 24 hours, Study 204953
  AUC: 4010 ng·h/mL
[2]; Study Day 11, 200 mg QD + RTV (capsules), τ = 24 hours, Study 204953, median (range), read-out: Cτ
  concentration at 24 h: 142 ng/mL
[2]; [9]
  reduction of Day 1 AUC without ritonavir predosing: ~25%
  reduction of Day 1 C max without ritonavir predosing: ~25%
[2]
  dose proportionality (C max and AUC): proportional PK; also recorded: dose proportional
[2]; listed as GSK2383232
  dose proportionality (C max and AUC): proportional pharmacokinetics
